Data set [1] has as its system Klebsiella pneumoniae. The data set can be described thus: Antibacterial activity against Klebsiella pneumoniae KPN+14-10 assessed as inhibition of bacterial growth incubated for 24 hrs by broth microdilution method. Format: functional. The conditions noted are these: read-out: MIC100.
Data set [2] has as its system Pseudomonas aeruginosa. The experiment in a line: Antibacterial activity against Pseudomonas aeruginosa PAE15-3 assessed as inhibition of bacterial growth incubated for 24 hrs by broth microdilution method. Particulars: read-out: MIC100. Format: functional.
In data set [3] the test system is Acinetobacter baumannii. The experiment in a line: Antibacterial activity against Acinetobacter baumannii ABA15-5 assessed as inhibition of bacterial growth incubated for 24 hrs by broth microdilution method. Format: functional. Particulars: read-out: MIC100.
Data set [4] concerns Pseudomonas aeruginosa. The data set can be described thus: Antibacterial activity against Pseudomonas aeruginosa PAE15-14 assessed as inhibition of bacterial growth incubated for 24 hrs by broth microdilution method. It is filed as functional. Particulars: read-out: MIC100.
The test system of data set [5] is Escherichia coli. The data set can be described thus: Antibacterial activity against Escherichia coli ECO+14-3 assessed as inhibition of bacterial growth incubated for 24 hrs by broth microdilution method. It is filed as functional. The conditions noted are these: read-out: MIC100.
Data set [6] concerns Acinetobacter baumannii. The data set can be described thus: Antibacterial activity against Acinetobacter baumannii AR15-4 assessed as inhibition of bacterial growth incubated for 24 hrs by broth microdilution method. Particulars: read-out: MIC100. It is filed as functional.
The subject of data set [7] is Klebsiella pneumoniae. The data set can be described thus: Antibacterial activity against Klebsiella pneumoniae KPN+14-8 assessed as inhibition of bacterial growth incubated for 24 hrs by broth microdilution method. It is filed as functional. Particulars: read-out: MIC100.
Data set [8] relates to Pseudomonas aeruginosa. The data set can be described thus: Antibacterial activity against Pseudomonas aeruginosa ATCC 27853 assessed as inhibition of bacterial growth incubated for 24 hrs by broth microdilution method. It is filed as functional. Particulars: read-out: MIC100.
In data set [9] the test system is Moraxella catarrhalis. The data set can be described thus: Antibacterial activity against Moraxella catarrhalis BCA15-3 assessed as inhibition of bacterial growth incubated for 24 hrs by broth microdilution method. It is filed as functional. Particulars: read-out: MIC100.
The test system of data set [10] is Escherichia coli. The data set can be described thus: Antibacterial activity against Escherichia coli ECO-14-2 assessed as inhibition of bacterial growth incubated for 24 hrs by broth microdilution method. Format: functional. The conditions noted are these: read-out: MIC100.
The subject of data set [11] is Klebsiella pneumoniae. The data set can be described thus: Antibacterial activity against Klebsiella pneumoniae KR15-2 assessed as inhibition of bacterial growth incubated for 24 hrs by broth microdilution method. It is filed as functional. Particulars: read-out: MIC100.
Data set [12] concerns Moraxella catarrhalis. The experiment in a line: Antibacterial activity against Moraxella catarrhalis BCA14-7 assessed as inhibition of bacterial growth incubated for 24 hrs by broth microdilution method. Format: functional. Particulars: read-out: MIC100.
Data set [13] deals with Escherichia coli. The experiment in a line: Antibacterial activity against Escherichia coli assessed as inhibition of bacterial growth incubated for 24 hrs by broth microdilution method. The conditions noted are these: read-out: MIC100. Format: functional.
Data set [14] concerns Acinetobacter baumannii. The experiment in a line: Antibacterial activity against Acinetobacter baumannii ABA15-4 assessed as inhibition of bacterial growth incubated for 24 hrs by broth microdilution method. It is filed as functional. The conditions noted are these: read-out: MIC100.
Data set [15] relates to Klebsiella pneumoniae. The data set can be described thus: Antibacterial activity against Klebsiella pneumoniae assessed as inhibition of bacterial growth incubated for 24 hrs by broth microdilution method. Particulars: read-out: MIC100. Format: functional.
Data set [16] deals with Moraxella catarrhalis. The data set can be described thus: Antibacterial activity against Moraxella catarrhalis assessed as inhibition of bacterial growth incubated for 24 hrs by broth microdilution method. Format: functional. Particulars: read-out: MIC100.
In data set [17] the test system is Pseudomonas aeruginosa. The data set can be described thus: Antibacterial activity against Pseudomonas aeruginosa PAO1 assessed as inhibition of bacterial growth incubated for 24 hrs by broth microdilution method. Particulars: read-out: MIC100. It is filed as functional.
Data set [18] deals with Acinetobacter baumannii. The data set can be described thus: Antibacterial activity against Acinetobacter baumannii ABA15-6 assessed as inhibition of bacterial growth incubated for 24 hrs by broth microdilution method. Format: functional. Particulars: read-out: MIC100.
The subject of data set [19] is Pseudomonas aeruginosa. The experiment in a line: Antibacterial activity against Pseudomonas aeruginosa PAE15-5 assessed as inhibition of bacterial growth incubated for 24 hrs by broth microdilution method. It is filed as functional. Particulars: read-out: MIC100.
For data set [20], the system named is Pseudomonas aeruginosa. The experiment in a line: Antibacterial activity against Pseudomonas aeruginosa PAE15-8 assessed as inhibition of bacterial growth incubated for 24 hrs by broth microdilution method. The conditions noted are these: read-out: MIC100. It is filed as functional.
For data set [21], the system named is Pseudomonas aeruginosa. The data set can be described thus: Antibacterial activity against Pseudomonas aeruginosa PR15-1 assessed as inhibition of bacterial growth incubated for 24 hrs by broth microdilution method. Format: functional. The conditions noted are these: read-out: MIC100.
Data set [22] has as its system HK-2. The experiment in a line: Cytotoxicity against human HK-2 cells assessed as cell viability incubated for 72 hrs by CCK-8 assay. It is filed as cell-based. The conditions noted are these: hk-2, 72 h.
Data set [23] concerns Pseudomonas aeruginosa. The data set can be described thus: Antibacterial activity against Pseudomonas aeruginosa assessed as inhibition of bacterial growth incubated for 24 hrs by broth microdilution method. The conditions noted are these: read-out: MIC100. Format: functional.
Data set [24] deals with Escherichia coli. The data set can be described thus: Antibacterial activity against Escherichia coli ECO+14-2 assessed as inhibition of bacterial growth incubated for 24 hrs by broth microdilution method. Format: functional. The conditions noted are these: read-out: MIC100.
The subject of data set [25] is Acinetobacter baumannii. The experiment in a line: Antibacterial activity against Acinetobacter baumannii assessed as inhibition of bacterial growth incubated for 24 hrs by broth microdilution method. Format: functional. The conditions noted are these: read-out: MIC100.

Converted amounts (≈) assume the structure as drawn. Positions of bridges follow the written chain, without caps; N, C: chain ends. Non-standard residues stand in square brackets, D forms with d. Residues, ends and D or L forms follow the SMILES beside them. *: point of attachment. Benzoyl(4-Ph) = O=C(c1ccc(-c2ccccc2)cc1)*; Dab = NCC[C@H](N)C(=O)O

For the compound `CC(C)CCCCC(=O)N[C@@H](CCN)C(=O)N[C@H](C(=O)N[C@@H](CCN)C(=O)N[C@H]1CCNC(=O)[C@H]([C@@H](C)O)NC(=O)[C@H](CCN)NC(=O)[C@H](CCN)NC(=O)[C@H](CC(C)C)NC(=O)[C@@H](Cc2ccccc2)NC(=O)[C@H](CCN)NC1=O)[C@@H](C)OC(=O)[C@@H]1CCCN1`, the MIC in data set [1] stood at 0.5 µg/mL (≈ 0.389 µM); in data set [2] it was 0.5 µg/mL (≈ 0.389 µM); in data set [3], 0.03 µg/mL (≈ 0.0233 µM); in data set [4], 0.25 µg/mL (≈ 0.194 µM); in data set [5], 0.125 µg/mL (≈ 0.0972 µM); in data set [6], 0.03 µg/mL (≈ 0.0233 µM). The MIC was found to be 1 µg/mL (≈ 0.777 µM) in data set [7]; 0.03 µg/mL (≈ 0.0233 µM) in data set [8]; 1 µg/mL (≈ 0.777 µM) in [9]; 0.06 µg/mL (≈ 0.0466 µM) in data set [10]; 0.5 µg/mL (≈ 0.389 µM) in data set [11]; 32 µg/mL (≈ 24.9 µM) in [12]. For the same compound, the MIC in [13] was 0.06 µg/mL (≈ 0.0466 µM); in data set [14], 0.03 µg/mL (≈ 0.0233 µM); in data set [15], 0.5 µg/mL (≈ 0.389 µM); in data set [16] it was > 32 µg/mL; in data set [17], 1 µg/mL (≈ 0.777 µM); in data set [18], < 0.015 µg/mL. For the same compound, the MIC in data set [19] was 0.25 µg/mL (≈ 0.194 µM); in data set [20] it was 0.5 µg/mL (≈ 0.389 µM); in data set [21], 0.25 µg/mL (≈ 0.194 µM); in [23], 0.03 µg/mL (≈ 0.0233 µM); in data set [24] it was 0.5 µg/mL (≈ 0.389 µM). Also, the Activity result in data set [22] is reported as “Non-Toxic”.

As for `CC(C)C[C@@H]1NC(=O)[C@@H](Cc2ccccc2)NC(=O)[C@H](CCN)NC(=O)[C@@H](NC(=O)[C@H](CCN)NC(=O)[C@@H](NC(=O)[C@H](CCN)NC(=O)c2ccc(-c3ccccc3)cc2)[C@@H](C)O)CCNC(=O)[C@H]([C@@H](C)O)NC(=O)[C@H](CCN)NC(=O)[C@H](CCN)NC1=O` ({Benzoyl(4-Ph)}-[Dab]T[Dab][Dab][Dab][dF]L[Dab][Dab]T; lactam 4-C), the MIC in data set [1] was 2 µg/mL (≈ 1.61 µM); in data set [2], 0.5 µg/mL (≈ 0.402 µM); in data set [3], 0.06 µg/mL (≈ 0.0483 µM); in data set [4] it was 0.125 µg/mL (≈ 0.101 µM); in data set [5], 1 µg/mL (≈ 0.804 µM); in data set [6], 0.06 µg/mL (≈ 0.0483 µM). For the same compound, the MIC in data set [7] is 4 µg/mL (≈ 3.22 µM); in data set [8] it was 0.06 µg/mL (≈ 0.0483 µM); in [9], 1 µg/mL (≈ 0.804 µM); in data set [10], 0.5 µg/mL (≈ 0.402 µM); in data set [11], 2 µg/mL (≈ 1.61 µM); in data set [12] it was 16 µg/mL (≈ 12.9 µM). Further, the MIC in data set [13] amounted to 0.5 µg/mL (≈ 0.402 µM); in [14] it was 0.06 µg/mL (≈ 0.0483 µM); in data set [15], 2 µg/mL (≈ 1.61 µM); in data set [16], 8 µg/mL (≈ 6.43 µM); in data set [17] it was 4 µg/mL (≈ 3.22 µM); in [18], 0.125 µg/mL (≈ 0.101 µM). Further, the MIC in data set [19] was 0.125 µg/mL (≈ 0.101 µM); in data set [20], 0.125 µg/mL (≈ 0.101 µM); in data set [21] it was 5 µg/mL (≈ 4.02 µM); in [25], 0.06 µg/mL (≈ 0.0483 µM); in data set [23], 0.06 µg/mL (≈ 0.0483 µM); in data set [24], 2 µg/mL (≈ 1.61 µM).

For the origin of these results see ChEMBL document CHEMBL4825673, “Total and Semisyntheses of Polymyxin Analogues with 2-Thr or 10-Thr Modifications to Decipher the Structure-Activity Relationship and Improve the Antibacterial Activity” (J Med Chem, 2021).
